Reference: patent US20240358773A1, “Parabacteroides Goldsteinii to Treat or Prevent Inflammatory and AutoImmune Diseases” (Joslin Diabetes Center, priority 2023, published 2024)

Assays:
class III PI3K = class III PI3K (Mus musculus, UniProt Q6PF93); assay: Inhibition of autophagosome formation in EV-treated BMDCs, IL-10
[1] = test system: colonic lamina propria (cLP) cells; assay: A2a blockade in antibiotic-pretreated mice given live or killed ASF519, flow cytometry of colonic lamina propria cells; format: in vivo, mouse; conditions: daily i.p. injection
[2] = test system: fusion of autophagosomes with lysosomes; assay: Inhibition of autophagosome-lysosome fusion in EV-treated BMDCs, IL-10

class III PI3K, sequence (Q6PF93 whole entry): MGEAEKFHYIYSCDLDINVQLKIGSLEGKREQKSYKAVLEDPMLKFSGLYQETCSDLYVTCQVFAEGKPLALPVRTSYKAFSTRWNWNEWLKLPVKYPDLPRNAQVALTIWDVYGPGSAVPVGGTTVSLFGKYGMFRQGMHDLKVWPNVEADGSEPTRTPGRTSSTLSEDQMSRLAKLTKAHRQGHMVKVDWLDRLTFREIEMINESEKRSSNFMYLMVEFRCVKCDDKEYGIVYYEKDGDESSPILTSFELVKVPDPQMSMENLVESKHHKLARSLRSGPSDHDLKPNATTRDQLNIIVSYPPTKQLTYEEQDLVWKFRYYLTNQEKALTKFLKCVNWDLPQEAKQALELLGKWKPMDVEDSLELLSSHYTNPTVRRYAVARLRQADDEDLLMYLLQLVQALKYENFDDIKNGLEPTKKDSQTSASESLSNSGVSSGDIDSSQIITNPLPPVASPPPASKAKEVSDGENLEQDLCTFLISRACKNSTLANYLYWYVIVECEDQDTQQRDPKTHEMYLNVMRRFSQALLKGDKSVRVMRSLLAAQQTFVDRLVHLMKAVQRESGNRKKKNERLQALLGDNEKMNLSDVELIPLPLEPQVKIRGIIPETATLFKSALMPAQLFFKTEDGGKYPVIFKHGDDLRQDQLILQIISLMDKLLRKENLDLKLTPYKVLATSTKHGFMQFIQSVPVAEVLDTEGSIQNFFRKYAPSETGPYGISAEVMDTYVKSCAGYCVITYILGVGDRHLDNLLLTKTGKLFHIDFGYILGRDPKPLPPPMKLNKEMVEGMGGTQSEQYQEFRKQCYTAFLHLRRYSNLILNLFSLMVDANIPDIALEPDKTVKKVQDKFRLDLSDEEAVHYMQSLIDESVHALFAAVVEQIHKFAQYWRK
class III PI3K, sequence (Q8VD65 whole entry partner): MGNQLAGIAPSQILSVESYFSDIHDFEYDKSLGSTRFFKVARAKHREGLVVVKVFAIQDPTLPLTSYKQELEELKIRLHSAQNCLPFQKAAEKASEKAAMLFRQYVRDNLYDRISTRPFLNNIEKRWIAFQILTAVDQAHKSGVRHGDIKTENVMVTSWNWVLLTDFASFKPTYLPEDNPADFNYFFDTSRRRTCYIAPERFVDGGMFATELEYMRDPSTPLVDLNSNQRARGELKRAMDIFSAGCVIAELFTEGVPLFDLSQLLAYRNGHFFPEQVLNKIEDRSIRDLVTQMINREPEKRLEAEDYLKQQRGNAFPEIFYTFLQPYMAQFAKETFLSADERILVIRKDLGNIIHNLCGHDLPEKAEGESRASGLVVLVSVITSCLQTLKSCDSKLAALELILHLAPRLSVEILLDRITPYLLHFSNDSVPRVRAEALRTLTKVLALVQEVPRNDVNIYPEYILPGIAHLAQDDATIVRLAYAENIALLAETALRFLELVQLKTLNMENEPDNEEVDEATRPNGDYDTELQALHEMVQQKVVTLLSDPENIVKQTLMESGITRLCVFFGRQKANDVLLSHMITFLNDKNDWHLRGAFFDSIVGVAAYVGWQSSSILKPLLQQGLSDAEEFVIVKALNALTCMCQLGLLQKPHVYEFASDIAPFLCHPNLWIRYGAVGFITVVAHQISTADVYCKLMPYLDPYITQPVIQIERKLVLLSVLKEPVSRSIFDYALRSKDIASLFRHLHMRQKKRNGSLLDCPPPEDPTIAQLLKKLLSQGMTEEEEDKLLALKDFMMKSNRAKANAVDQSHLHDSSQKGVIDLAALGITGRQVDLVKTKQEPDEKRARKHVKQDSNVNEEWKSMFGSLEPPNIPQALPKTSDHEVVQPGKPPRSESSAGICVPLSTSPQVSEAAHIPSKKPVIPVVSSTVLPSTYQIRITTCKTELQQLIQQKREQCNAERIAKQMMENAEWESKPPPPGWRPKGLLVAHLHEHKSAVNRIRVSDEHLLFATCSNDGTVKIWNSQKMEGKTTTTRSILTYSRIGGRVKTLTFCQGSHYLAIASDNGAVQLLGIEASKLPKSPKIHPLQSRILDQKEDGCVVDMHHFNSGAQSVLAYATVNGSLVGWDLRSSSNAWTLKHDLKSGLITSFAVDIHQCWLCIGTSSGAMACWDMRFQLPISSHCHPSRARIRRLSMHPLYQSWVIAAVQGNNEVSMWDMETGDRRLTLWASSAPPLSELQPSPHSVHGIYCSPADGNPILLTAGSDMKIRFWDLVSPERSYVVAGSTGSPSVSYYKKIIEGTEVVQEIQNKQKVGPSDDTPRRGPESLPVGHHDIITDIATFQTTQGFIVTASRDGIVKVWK
class III PI3K, sequence (O88597 whole entry partner): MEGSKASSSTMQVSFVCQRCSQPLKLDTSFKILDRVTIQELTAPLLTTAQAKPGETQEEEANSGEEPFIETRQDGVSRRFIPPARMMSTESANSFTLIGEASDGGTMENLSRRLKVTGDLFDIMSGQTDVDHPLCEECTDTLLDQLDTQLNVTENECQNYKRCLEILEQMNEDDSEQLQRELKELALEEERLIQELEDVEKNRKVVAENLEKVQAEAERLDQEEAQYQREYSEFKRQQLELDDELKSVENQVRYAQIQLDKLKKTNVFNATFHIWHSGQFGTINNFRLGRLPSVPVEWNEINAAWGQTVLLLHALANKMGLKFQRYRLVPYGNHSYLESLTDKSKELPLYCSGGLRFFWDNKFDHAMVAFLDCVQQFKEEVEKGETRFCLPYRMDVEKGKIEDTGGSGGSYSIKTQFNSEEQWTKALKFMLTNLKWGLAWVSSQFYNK
class III PI3K, sequence (Q8CDJ3 whole entry partner): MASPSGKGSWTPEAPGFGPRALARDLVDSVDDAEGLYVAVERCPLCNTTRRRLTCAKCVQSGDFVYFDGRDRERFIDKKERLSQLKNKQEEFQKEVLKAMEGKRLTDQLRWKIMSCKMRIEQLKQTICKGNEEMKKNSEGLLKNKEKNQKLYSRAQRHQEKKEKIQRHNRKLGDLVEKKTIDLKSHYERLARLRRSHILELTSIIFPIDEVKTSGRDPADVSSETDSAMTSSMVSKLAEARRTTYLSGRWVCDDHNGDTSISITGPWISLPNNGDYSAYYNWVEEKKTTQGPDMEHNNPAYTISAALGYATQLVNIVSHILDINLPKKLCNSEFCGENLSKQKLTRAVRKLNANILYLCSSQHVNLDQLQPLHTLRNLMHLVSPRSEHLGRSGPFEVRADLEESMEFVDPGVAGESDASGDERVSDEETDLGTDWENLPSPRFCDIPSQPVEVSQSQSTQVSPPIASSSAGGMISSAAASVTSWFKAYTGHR

Cn1cnc(N)c2ncnc1-2 [3-methyladenine]
effect on IL-10 induction of EV-treated BMDCs (class III PI3K): efficiently blocked IL-10 induction

Nc1nc(NCCc2ccc(O)cc2)nc2nc(-c3ccco3)nn12 [ZM241385]
effect of A2a antagonist on ASF519-induced IL-10 producing DCs [1]: significantly decreased
effect of A2a blockage on ASF519-decreased B cells and CD11b+ CD45+ cells [1]: restored

CCN(CCO)CCCC(C)Nc1ccnc2cc(Cl)ccc12 (stereo not shown) [hydroxychloroquine]
effect on IL-10 induction of EV-treated BMDCs [2]: efficiently blocked IL-10 induction
